The values below come from patent US8835617B2, “Polynucleotides encoding a human TRIM-Cyp fusion polypeptide, compositions thereof, and methods of using same” (priority 2008, dated 2014).

The test system of one experiment is HIV-1. On the procedure: Since the objective was to engineer a fully human HIV-1 restriction factor, hCypA was the fused at 10 different positions along the length of hT5α (FIG. 44A).
(§1) 2×10^4 adherent cells/well or 8×10^4 suspension cells/well were plated in 48-well plates (Nunc) for challenge with single-cycle GFP reporter vectors that were titered as indicated. GFP synthesis was assessed by flow cytometry 48 hrs post-infection. For spreading infection, 10^6 Jurkat cells were infected with 1 to 15 ng p24/10^6 cells of HIV-1NL4-3-GFP-IRES-Nef. Cells were split every 3 days, fixed in 0.5% paraformaldehyde/PBS, and assayed for GFP synthesis by flow cytometry. For infection of 10^6 primary CD4^+ T cells or macrophages, 15 ng p24/10^6 cells of a CXCR4- or CCR5-tropic HIV-1NL4-3 stock was used, and infection was monitored by assessing the accumulation of RT activity in the supernatant (Sayah et al., 2004). FACSCalibur, Cellquest Pro (Becton Dickinson), and FlowJo software (Treestar, Inc.) were used to record and analyze fluorescence. 1-5×10^5 events were acquired for analysis. […]
2×10^4 adherent cells/well or 8×10^4 suspension cells/well were plated in 48-well plates (Nunc) for challenge with single-cycle GFP reporter vectors that were titered as indicated. GFP synthesis was assessed by flow cytometry 48 hrs post-infection. […]

A further experiment concerns HIV-1-G89V. In words: HIV-1-G89V CA mutant vector challenge of CRFK cells. Type of experiment: cell-based. The source says:
Most HIV-1 plasmids and vectors have been described previously (Berthoux et al., 2004). pNL4-3 contains a complete infectious HIV-1 provirus. pNL4-3-R5 bears the V3 loop of the CCR5-tropic 92TH014-2 HIV-1 strain (Papkalla et al., 2002). To generate pNL4-3-GFP-IRES-Nef, enhanced green fluorescent protein (eGFP) and the ECMV (encephalomyocarditis virus) IRES (internal ribosome entry site) were inserted upstream of nef pNLΔenvGFP is pNL4-3 with an env-inactivating mutation and eGFP in place of nef. CSGW is an HIV-1 vector expressing eGFP under the control of the spleen focus forming virus (SFFV) promoter. pFUPI, was engineered from pFUW (Lois et al., 2002) and uses the ubiquitin promoter to drive expression of a puromycin resistance cassette followed by ECMV IRES-T5. pAIG uses the SFFV promoter to drive expression of T5 followed by IRES-eGFP. In pscALPS, the SFFV promoter drives expression of T5 and the human CypA promoter drives expression of eGFP. For three-component vector production, HIV-1 gag and pol were expressed using either psPAX2, p8.9NΔSB, p8.9NΔSB-G89V, or p8.9NΔSB-V86P/H87Q/I91V/M96I. p8.9NΔSB-V86P/H87Q/I91V/M96I is p8.9NΔSB with the V86P/H87Q/I91V/M96I mutation (Chatterji et al., 2005) introduced in CA. […] For biochemistry, hT5Cyps were cloned into the p3xFLAG-CMV-7.1 expression vector (Sigma) and HIV-1 CA was expressed as a GST-fusion using the EF1α promoter.

Another experiment has as its system HIV-2ROD. Nature of the experiment: HIV-2ROD GFP vector challenge of CRFK cells expressing T5 proteins. Type of experiment: cell-based. Particulars: in words.
Source text: (§2) Most HIV-1 plasmids and vectors have been described previously (Berthoux et al., 2004). pNL4-3 contains a complete infectious HIV-1 provirus. pNL4-3-R5 bears the V3 loop of the CCR5-tropic 92TH014-2 HIV-1 strain (Papkalla et al., 2002). To generate pNL4-3-GFP-IRES-Nef, enhanced green fluorescent protein (eGFP) and the ECMV (encephalomyocarditis virus) IRES (internal ribosome entry site) were inserted upstream of nef pNLΔenvGFP is pNL4-3 with an env-inactivating mutation and eGFP in place of nef. […] For biochemistry, hT5Cyps were cloned into the p3xFLAG-CMV-7.1 expression vector (Sigma) and HIV-1 CA was expressed as a GST-fusion using the EF1α promoter.
as §1, with “For spreading infection, 10^6 Jurkat cells were infected with 1 to 15 ng p24/10^6 cells of HIV-1NL4-3-GFP-IRES-Nef. Cells were split every 3 days, fixed in 0.5% paraformaldehyde/PBS, and assayed for GFP synthesis by flow cytometry.” left out, “fluorescence.” for “fluorescence. 1-5×10^5 events were acquired for analysis.”

The next experiment relates to HIV-1NL4-3-GFP-IRES-Nef. In words: Spreading infection after electroporation of proviral DNA into Jurkat T cell lines. The experiment is classed as cell-based. The source says:
Studies were designed to see whether a similar system could be exploited in order to select for a T5Cyp-resistant virus. One approach was to introduce HIV-1NL4-3-GFP-IRES-Nef proviral DNA into Jurkat T cell lines expressing T5 or control by electroporation, to ensure that spreading infection was initiated by cell associated virus in the absence of free virus. […] Again no T5Cyp-resistant HIV-1 could be derived in this experimental setting.

A further experiment has as its system SIVAGMtan. Nature of the experiment: SIVAGMtan GFP vector challenge of CRFK cells expressing T5 proteins. The experiment is classed as cell-based. Particulars: in words.
Source text: as §2
as §1, with “For spreading infection, 10^6 Jurkat cells were infected with 1 to 15 ng p24/10^6 cells of HIV-1NL4-3-GFP-IRES-Nef. Cells were split every 3 days, fixed in 0.5% paraformaldehyde/PBS, and assayed for GFP synthesis by flow cytometry.” left out, “fluorescence.” for “fluorescence. 1-5×10^5 events were acquired for analysis.”

A further experiment has as its system FIVPET. Nature of the experiment: FIVPET GFP vector challenge of CRFK cells expressing T5 proteins. Type of experiment: cell-based. To be noted: in words.
Source text: as §2
as §1, with “For spreading infection, 10^6 Jurkat cells were infected with 1 to 15 ng p24/10^6 cells of HIV-1NL4-3-GFP-IRES-Nef. Cells were split every 3 days, fixed in 0.5% paraformaldehyde/PBS, and assayed for GFP synthesis by flow cytometry.” left out, “fluorescence.” for “fluorescence. 1-5×10^5 events were acquired for analysis.”

In the case of “AoT5Cyp: Aotus (owl monkey) TRIM5-cyclophilin A fusion protein [reference compound]”, the “magnitude of restriction with CypA knockdown” value in the experiment on HIV-1 (CypA KD vs Luc KD Jurkat T cells) was “Equivalent results”. In addition, the “restriction of HIV-1-G89V” value with HIV-1-G89V is given as “failed to restrict HIV-1-G89V”. In addition, the “restriction of HIV-2ROD” value with HIV-2ROD is on record as “blocked comparably”. Moreover, the “course of infection after electroporation of provirus” value in the experiment on HIV-1NL4-3-GFP-IRES-Nef is reported as “the infection was self-limiting”. Also, the “restriction of SIVAGMtan” value in the experiment on SIVAGMtan was “restricted all four lentiviruses”. Further, the “restriction of FIVPET” value with FIVPET is “blocked comparably”.

With “hT5Cyp: human TRIM5α fused at serine 322 to human cyclophilin A, SEQ ID NO:12”, in the experiment on HIV-1 (in words, Jurkat T cells (b397 also THP-1 monocytes)), the HIV-1 restriction activity result is recorded as “activity comparable to AoT5Cyp”. For the same substance, the “restriction of HIV-1-G89V” value in the experiment with HIV-1-G89V is given as “failed to restrict HIV-1-G89V”. Besides, in the experiment on HIV-2ROD, the “restriction of HIV-2ROD” value was “blocked comparably”. Further, the “course of infection after electroporation of provirus” value in the experiment on HIV-1NL4-3-GFP-IRES-Nef is on record as “the infection was self-limiting”. For the same substance, the “restriction of SIVAGMtan” value with SIVAGMtan was “significantly better than AoT5Cyp at low MOI”. In addition, in the experiment with FIVPET, the “restriction of FIVPET” value is “blocked comparably”.
